{
  "source": "patent US20240368232A1",
  "about": "“ANTIVIRAL LARAZOTIDE DERIVATIVES” (priority 2021, published 2024)",
  "key": {"[1]": {"biological_target": "T1, SARS-COV-2 M^pro (3264-3569aa) (Severe acute respiratory syndrome coronavirus 2, UniProt P0DTD1)", "T1 construct": "SARS-COV-2 M^pro (3264-3569aa); purchased Proteros WTH_20_1", "experiment": "FRET assay for TRIP on SARS-COV-2 main protease", "type": "biochemical"}, "TK^+ VZV strain OKA [2]": {"system": "TK^+ VZV strain OKA", "conditions": "read-out: Antiviral activity EC50 TK^+ VZV strain OKA; VZV in HEL cells; plaque formation reduced by 50%; 20 PFU"}, "[3]": {"system": "human embryonic lung (HEL) cells", "experiment": "Cytotoxicity, cell morphology (MCC), HEL cells", "type": "cell-based"}, "[4]": {"system": "cytomegalovirus (HCMV) Davis strain", "conditions": "read-out: Antiviral activity EC50 Davis strain; HCMV in HEL cells; plaque formation reduced by 50%; 100 PFU"}, "in vitro": {"experiment": "in vitro", "conditions": "African green monkey"}, "[5]": {"system": "cytomegalovirus (HCMV) AD-169 strain", "conditions": "read-out: Antiviral activity EC50 AD-169 strain; HCMV in HEL cells; plaque formation reduced by 50%; 100 PFU"}, "TK^− VZV strain 07-1 [6]": {"system": "TK^− VZV strain 07-1", "conditions": "read-out: Antiviral activity EC50 TK^− VZV strain 07-1.; VZV in HEL cells; plaque formation reduced by 50%; 20 PFU"}, "[7]": {"system": "cytomegalovirus (HCMV) AD-169 strain", "experiment": "microbe, parasite or virus in culture", "conditions": "Human betaherpesvirus 5, AD169, HEL, read-out: Antiviral activity EC50 AD-169 strain, HCMV in HEL cells; plaque formation reduced by 50%; 100 PFU"}, "TK^+ VZV strain OKA [8]": {"system": "TK^+ VZV strain OKA", "experiment": "microbe, parasite or virus in culture", "conditions": "Human alphaherpesvirus 3, HEL, read-out: Antiviral activity EC50 TK^+ VZV strain OKA, VZV in HEL cells; plaque formation reduced by 50%; 20 PFU"}, "TK^− VZV strain 07-1 [9]": {"system": "TK^− VZV strain 07-1", "experiment": "microbe, parasite or virus in culture", "conditions": "Human alphaherpesvirus 3, HEL, read-out: Antiviral activity EC50 TK^− VZV strain 07-1., VZV in HEL cells; plaque formation reduced by 50%; 20 PFU"}, "[10]": {"system": "SARS-COV-2 1074 # 2 strain"}, "Vero cells [11]": {"system": "Vero cells"}, "[12]": {"system": "SARS-COV-2 UK (NVDBB) strain"}, "Vero cells [13]": {"system": "Vero cells", "type": "cell-based"}, "[14]": {"system": "SARS-COV-2 UK (NVDBB) strain", "experiment": "microbe, parasite or virus in culture", "conditions": "Severe acute respiratory syndrome coronavirus 2, Vero, read-out: Antiviral activity EC50 UK (NVDBB) strain Vero cells"}, "[15]": {"system": "SARS-COV-2 1074 # 2 strain", "experiment": "microbe, parasite or virus in culture", "conditions": "Severe acute respiratory syndrome coronavirus 2, Vero, read-out: Antiviral activity EC50 1074 # 2 strain Vero cells"}, "M^pro enzyme": {"biological_target": "M^pro enzyme (Severe acute respiratory syndrome coronavirus 2, UniProt P0DTD1)", "conditions": "MM-GBSA, literature Di Micco et al. 2021; cited from earlier work"}},
  "note": "Values joined by “and” are separate entries in the source; they are usually repeats but may differ in a detail not shown here. Equal values may be shown once. Read-outs that look alike come from different tables or passages of the source. Square brackets hold non-standard residues; d marks the D form. Peptide text beside a SMILES is read from it. * marks the point of attachment. ξ: configuration not given here. ξTic = O=C(O)C1Cc2ccccc2CN1; ξY = NC(Cc1ccc(O)cc1)C(=O)O; Heptanoyl = CCCCCCC(=O)*; Boc = CC(C)(C)OC(=O)*",
  "data": [
    {"molecule": "CC(=O)NCC(=O)N[C@@H](Cc1ccccc1)C(=O)N[C@H](Cc1c[nH]cn1)C(=O)NCC=O", "note": "[TRIP 42] (Ac-GF[dH]G-aldehyde)", "values": [
      {"measurement": "IC50", "setting": "[1]", "value": "> 425", "unit": "µM"}
    ]},
    {"molecule": "CC(=O)NCC(=O)N[C@H](Cc1ccccc1)C(=O)N[C@H](C=O)Cc1c[nH]cn1", "note": "[TRIP 5] (Ac-Gly-[dF]-His-aldehyde)", "values": [
      {"measurement": "EC50", "setting": "TK^+ VZV strain OKA [2]", "value": "> 100", "unit": "µM"},
      {"measurement": "Cytotoxicity Cell morphology (MCC)", "setting": "[3]; Table 3 (HCMV experiment)", "value": 100, "unit": "μM"},
      {"measurement": "Cytotoxicity Cell morphology (MCC)", "setting": "[3]; Table 4 (VZV experiment)", "value": ">100", "unit": "μM"},
      {"measurement": "EC50", "setting": "[4]", "value": "> 100", "unit": "µM"},
      {"measurement": "IC50", "setting": "[1]", "value": "2.51 ± 0.24", "unit": "µM"},
      {"measurement": "Kd", "setting": "[1]", "value": "1.26 ± 0.12", "unit": "µM"},
      {"measurement": "CC50", "setting": "in vitro", "value": "> 100", "unit": "µM"},
      {"measurement": "EC50", "setting": "[5]", "value": "> 20", "unit": "µM"},
      {"measurement": "EC50", "setting": "TK^− VZV strain 07-1 [6]", "value": "> 100", "unit": "µM"}
    ]},
    {"molecule": "Nc1ccn(C[C@@H](CO)OCP(=O)(O)O)c(=O)n1", "note": "[Cidofovir (CDV), Cidofovir, reference compound]", "values": [
      {"measurement": "Cytotoxicity Cell morphology (MCC)", "setting": "[3]; Table 3 (HCMV experiment)", "value": 317, "unit": "μM"},
      {"measurement": "EC50", "setting": "[7]", "value": 1.39, "unit": "µM"},
      {"measurement": "EC50", "setting": "[5]", "value": 1.08, "unit": "µM"}
    ]},
    {"molecule": "CC(C)(C)OC(=O)NCC(=O)N[C@H](Cc1ccccc1)C(=O)N[C@H](C=O)Cc1c[nH]cn1", "note": "[TRIP 43] (Boc-Gly-[dF]-His-aldehyde)", "values": [
      {"measurement": "EC50", "setting": "TK^+ VZV strain OKA [2]", "value": "> 100", "unit": "µM"},
      {"measurement": "Cytotoxicity Cell morphology (MCC)", "setting": "[3]; Table 3 (HCMV experiment)", "value": 100, "unit": "μM"},
      {"measurement": "Cytotoxicity Cell morphology (MCC)", "setting": "[3]; Table 4 (VZV experiment)", "value": ">100", "unit": "μM"},
      {"measurement": "EC50", "setting": "[4]", "value": "> 100", "unit": "µM"},
      {"measurement": "CC50", "setting": "in vitro", "value": "> 100", "unit": "µM"},
      {"measurement": "EC50", "setting": "[5]", "value": "> 20", "unit": "µM"},
      {"measurement": "EC50", "setting": "TK^− VZV strain 07-1 [6]", "value": "> 100", "unit": "µM"}
    ]},
    {"molecule": "O=c1[nH]c(=O)n([C@H]2C[C@H](O)[C@@H](CO)O2)cc1/C=C/Br", "note": "[Brivudine (BVDU), Brivudine, reference compound]", "values": [
      {"measurement": "EC50", "setting": "TK^+ VZV strain OKA [2]", "value": 0.17, "unit": "µM"},
      {"measurement": "EC50", "setting": "TK^+ VZV strain OKA [8]", "value": 0.27, "unit": "µM"},
      {"measurement": "Cytotoxicity Cell morphology (MCC)", "setting": "[3]; Table 4 (VZV experiment)", "value": ">300.3", "unit": "μM"},
      {"measurement": "EC50", "setting": "TK^− VZV strain 07-1 [6]", "value": 4.53, "unit": "µM"},
      {"measurement": "EC50", "setting": "TK^− VZV strain 07-1 [9]", "value": 5.89, "unit": "µM"}
    ]},
    {"molecule": "CC(C)C[C@H](C=O)NC(=O)[C@H](Cc1ccccc1)NC(=O)C1Cc2ccccc2CN1", "note": "(stereo partly drawn) [TRIP 3] (H-[ξTic]-Phe-[dL]-aldehyde)", "values": [
      {"measurement": "IC50", "setting": "[1]", "value": "> 425", "unit": "µM"}
    ]},
    {"molecule": "CCCCCCC(=O)NCC(=O)N[C@H](Cc1ccccc1)C(=O)N[C@H](C=O)Cc1c[nH]cn1", "note": "[TRIP 44] (Heptanoyl-Gly-[dF]-His-aldehyde)", "values": [
      {"measurement": "EC50", "setting": "TK^+ VZV strain OKA [2]", "value": "> 100", "unit": "µM"},
      {"measurement": "Cytotoxicity Cell morphology (MCC)", "setting": "[3]; Table 3 (HCMV experiment)", "value": 100, "unit": "μM"},
      {"measurement": "Cytotoxicity Cell morphology (MCC)", "setting": "[3]; Table 4 (VZV experiment)", "value": ">100", "unit": "μM"},
      {"measurement": "EC50", "setting": "[4]", "value": "> 100", "unit": "µM"},
      {"measurement": "CC50", "setting": "in vitro", "value": "> 100", "unit": "µM"},
      {"measurement": "EC50", "setting": "[5]", "value": "> 20", "unit": "µM"},
      {"measurement": "EC50", "setting": "TK^− VZV strain 07-1 [6]", "value": "> 100", "unit": "µM"}
    ]},
    {"molecule": "NC(=O)c1nc(F)cnc1O", "note": "[T-705, reference compound]", "values": [
      {"measurement": "Antiviral activity EC50 1074 # 2 strain Vero cells", "setting": "[10]", "value": "76.15 mg/L and 81.79 mg/L"},
      {"measurement": "Cytotoxicity Cell growth (CC50)", "setting": "Vero cells [11]", "value": ">200", "unit": "mg/L"},
      {"measurement": "Antiviral activity EC50 UK (NVDBB) strain Vero cells", "setting": "[12]", "value": 23.39, "unit": "mg/L"},
      {"measurement": "Cytotoxicity Cell morphology (MCC)", "setting": "Vero cells [13]", "value": ">200", "unit": "μg/ml"}
    ]},
    {"molecule": "CCC(CC)COC(=O)[C@H](C)N[P@](=O)(OC[C@H]1O[C@@](C#N)(c2ccc3c(N)ncnn23)[C@H](O)[C@@H]1O)Oc1ccccc1", "note": "[Remdesivir]", "values": [
      {"measurement": "EC50", "setting": "[14]", "value": 0.19, "unit": "µM"},
      {"measurement": "EC50", "setting": "[10]; read-out: Antiviral activity EC50 1074 # 2 strain Vero cells", "value": 1.17, "unit": "µM"},
      {"measurement": "CC50", "setting": "Vero cells [11]; African green monkey", "value": 59.1, "unit": "µM"},
      {"measurement": "CC50", "setting": "in vitro; Cytotoxicity Cell growth (CC50)", "value": "> 80", "unit": "µM"},
      {"measurement": "EC50", "setting": "[15]", "value": 1.01, "unit": "µM"}
    ]},
    {"molecule": "O=CCNC(=O)[C@@H](Cc1c[nH]cn1)NC(=O)[C@H](Cc1c[nH]cn1)NC(=O)C1Cc2ccccc2CN1", "note": "(stereo partly drawn) [TRIP 41] (H-[ξTic]H[dH]G-aldehyde)", "values": [
      {"measurement": "IC50", "setting": "[1]", "value": "> 425", "unit": "µM"}
    ]},
    {"molecule": "larazotide acetate [AT1001 acetate]", "values": [
      {"measurement": "docking in the catalytic domain of the M^pro enzyme", "setting": "M^pro enzyme", "value": "docks extremely well"}
    ]},
    {"molecule": "CC(=O)NCC(=O)NC(Cc1ccc(O)cc1)C(=O)N[C@H](C=O)Cc1c[nH]cn1", "note": "(stereo partly drawn) [TRIP 23] (Ac-Gly-[ξY]-His-aldehyde)", "values": [
      {"measurement": "IC50", "setting": "[1]", "value": 198, "unit": "µM"}
    ]}
  ]
}
